Broadly, the GI50 is the concentration at which growth is held to half of that of the control.

Each structure is given as a SMILES string.

These results are taken from article PMC12366525, “Characterization of allosteric modulators that disrupt androgen receptor co-activator protein-protein interactions to alter transactivation–Drug leads for metastatic castration resistant prostate cancer” (SLAS discovery : advancing life sciences R & D, 2023).

In series [1] the test system is PSA. Put plainly: Dot blot of PSA secretion by C4–2 cells. The series is classed as cell-based, human. To be noted: 10 nM DHT 24 h; 20 μM compound 3 h pre-exposure. Here is the method: To determine PSA secretion levels, C4–2 cells were seeded at 1.4 × 10 [5] cells/well in 12-well plates and treated as described above for PSA cell expression experiments. […] 500 μL of conditioned media supernatant was added to the wells of 96-well to Bio-blot apparatus (BioRad, Hercules, CA) containing a nitrocellulose membrane and was allowed to pass through and attach to the membrane under gravity for 3–4 h at room temperature. The membrane was washed 1x with 500 μL TBS under vacuum, blocked with 1% BSA in TBST for 1 h, and then incubated overnight at 4 °C with the primary rabbit anti-hPSA antibody (Cell Signaling, Danvers, MA) diluted 1:1000 in TBST plus 1% BSA. Dot blots were washed 3x in 10 mL of TBST for 10 min, then incubated for 1 h with secondary goat anti-rabbit-IgG HRP conjugated antibody (Invitrogen, Carlsbad, CA) diluted 1:10,000 in TBST plus 1% Bovine Serum Albumin (BSA), washed 3x with 10 mL of TBST for 10 min, and then developed with Pierce ECL western blotting substrate. Images of ECL dot blots were acquired on an iBright 1500 imaging system and quantified by iBright image analysis software.

In series [2] the target is T1, TIF2 (Homo sapiens, UniProt Q15596).
T1 construct: endogenous in cells; host or cells: C4–2 cells
Put plainly: Western blotting cellular thermal shift assay for TIF2 in C4–2 cells. The series is classed as cell-based. To be noted: 20 μM 1 h at 37 °C prior to heat shock at 46 °C. Here is the method:
C4–2 cells were harvested by trypsinization, washed 1x by centrifugation at 270 × g for 5 min and resuspension in PBS, counted, centrifugated at 270 × g for 5 min and resuspended at 7 × 10 [6] cells per mL in Opti-MEM medium (Gibco, Gaithersburg, MD). 50 μL of C4–2 cell suspension (3.5 × 10 [5] cells) were then transferred to PCR tubes that were placed in a T-100 thermocycler (BioRad, Hercules, CA) and a 2 °C interval temperature step gradient from 37 °C to 53 °C was applied. Cells were maintained at each step of the temperature gradient for 5 min and then tubes were withdrawn and placed on ice. 50 μL of cell lysis buffer, 500 mM NaCl, 1% NP-40, 1x protease inhibitor cocktail in PBS were added to the heat shocked cell suspensions in PCR tubes and placed on ice for an additional 30 min. Cell lysates were then centrifuged at 14,000 RPM (18,800 × g) at 4 °C for 15 min and supernatants were transferred to new tubes and protein concentrations were determined in a bicinchoninic acid (BCA) assay. 45 μL of cell lysis supernatants were mixed with 15 μL of 5x SDS-PAGE sample buffer and placed in a heat block at 100 °C for 5 min. The protein constituents of heat shocked C4–2 cell lysis supernatants were separated by SDS-PAGE on 8% separating gels, transferred to nitrocellulose membranes that were blocked for 1 h at room temperature in 5% non-fat milk in TBST, and then probed overnight at 4 °C with a 1:1000 dilution of either rabbit anti-AR (Cell Signaling, Danvers, MA) or rabbit anti-TIF2 (Bethyl Laboratories, Waltham, MA) primary antibodies in TBST containing 5% non-fat milk. Membranes were then washed 3x in TBST buffer for 10 min, then incubated with a 1:10,000 dilution of the goat anti-rabbit IgG HRP conjugated secondary antibody (Invitrogen, Carlsbad,CA) in TBST containing 5% non-fat milk for 1 h at room temperature. Western blots were then washed 3x in TBST buffer and developed with Pierce ECL western blotting substrate. Images of ECL western blots were acquired on an iBright 1500 imaging system and quantified using the iBright image analysis software.
For orientation: A western blot detects proteins with antibodies after separation by electrophoresis.

Series [3] concerns HEK 293 cells. Put plainly: M2H viability counter screen. To be noted: cytotoxicity counter screen; read-out: M2H viability CS GI50. The format is cell-based. (In general: Counterscreens check selectivity or assay interference.)

T1 sequence (Q15596 whole entry): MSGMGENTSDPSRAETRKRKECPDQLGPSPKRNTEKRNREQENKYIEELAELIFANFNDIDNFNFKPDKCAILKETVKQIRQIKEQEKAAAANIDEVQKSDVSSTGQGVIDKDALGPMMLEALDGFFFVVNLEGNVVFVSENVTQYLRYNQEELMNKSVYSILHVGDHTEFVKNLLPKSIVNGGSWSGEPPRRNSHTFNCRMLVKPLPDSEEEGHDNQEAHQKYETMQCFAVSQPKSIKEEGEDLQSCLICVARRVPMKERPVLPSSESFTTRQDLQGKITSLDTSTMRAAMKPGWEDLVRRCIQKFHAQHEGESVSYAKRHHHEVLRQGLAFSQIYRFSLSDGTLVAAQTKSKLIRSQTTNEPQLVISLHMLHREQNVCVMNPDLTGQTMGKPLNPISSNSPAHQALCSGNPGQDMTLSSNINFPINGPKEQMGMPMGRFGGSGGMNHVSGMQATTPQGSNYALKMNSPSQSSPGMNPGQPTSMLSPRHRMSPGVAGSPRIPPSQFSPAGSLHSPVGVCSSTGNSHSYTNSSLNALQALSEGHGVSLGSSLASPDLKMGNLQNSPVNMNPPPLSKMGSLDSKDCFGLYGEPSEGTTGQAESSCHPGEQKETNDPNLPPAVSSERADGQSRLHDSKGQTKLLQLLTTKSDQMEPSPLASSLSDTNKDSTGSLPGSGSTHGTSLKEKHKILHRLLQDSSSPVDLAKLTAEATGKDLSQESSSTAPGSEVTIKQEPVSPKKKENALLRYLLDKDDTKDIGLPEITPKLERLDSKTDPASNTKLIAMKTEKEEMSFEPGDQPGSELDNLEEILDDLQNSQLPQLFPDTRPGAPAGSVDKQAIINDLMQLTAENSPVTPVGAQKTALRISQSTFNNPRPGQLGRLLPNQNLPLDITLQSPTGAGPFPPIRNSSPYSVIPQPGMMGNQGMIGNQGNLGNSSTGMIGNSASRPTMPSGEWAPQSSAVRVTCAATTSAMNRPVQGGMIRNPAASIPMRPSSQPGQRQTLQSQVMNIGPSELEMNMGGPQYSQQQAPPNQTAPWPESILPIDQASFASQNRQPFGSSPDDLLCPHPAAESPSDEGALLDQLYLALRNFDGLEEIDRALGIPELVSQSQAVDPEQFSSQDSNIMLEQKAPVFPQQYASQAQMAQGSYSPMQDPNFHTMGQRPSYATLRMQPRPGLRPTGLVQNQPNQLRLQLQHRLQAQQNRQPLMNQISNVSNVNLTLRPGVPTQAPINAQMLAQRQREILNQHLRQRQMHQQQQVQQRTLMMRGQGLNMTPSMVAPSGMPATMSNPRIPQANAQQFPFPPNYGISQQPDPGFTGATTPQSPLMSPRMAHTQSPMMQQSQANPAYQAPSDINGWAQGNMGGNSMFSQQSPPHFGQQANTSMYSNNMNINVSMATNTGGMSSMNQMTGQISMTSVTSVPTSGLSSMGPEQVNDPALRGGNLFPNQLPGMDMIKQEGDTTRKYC

As to `Cc1ccccc1-c1cc(O)c2c(c1)CN(c1nc(C(N)=O)cs1)CCO2` [S1–1], the “C4-2 cell supernatants PSA Dot Blot, relative to DMSO (100%)” value in series [1] is reported as 57.7%. In series [2], the “Effect on TIF2 thermal stability” value is “did not enhance TIF2 thermal stability over DMSO”.
In the case of `Cc1ccccc1-c1cc(O)c2c(c1)CN(c1nccs1)CCO2` [S1–3], in series [3], the GI50 was above 100 µM.
In the case of `Cc1nsc(NC(=O)N2CCC(Sc3ccccc3C)CC2)n1` [S2–6], the “C4-2 cell supernatants PSA Dot Blot, relative to DMSO (100%)” value in series [1] was determined as 12.8%. For the same compound, in series [2], the “Effect on TIF2 thermal stability” value is on record as “did not enhance TIF2 thermal stability over DMSO”.
The corresponding values for `Cc1c(-c2ccccc2F)[nH]c2ccc(CNC(=O)CCc3cn[nH]c3)cc12` [S3–11] are 25.5% and “did not enhance TIF2 thermal stability over DMSO”.
